Source: patent US12421254B2, “KRAS modulators and uses thereof” (Quanta Therapeutics, Inc., priority 2023, dated 2025)

How the values were obtained:
[1] = test system: phospho-ERK in GP2D (KRAS-G12D) cells; experiment: pERK In Cell Western (ICW) assay (Method B), GP2D; format: cell-based
Method in brief: (§1)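 SW620 (KRAS-G12V), GP2D (KRAS-G12D) and AGS cells, seeded overnight, were exposed to compounds (½-log, 9-point) for 3 h at 37°C, then fixed and stained for phospho-ERK. Infrared imaging; pERK normalized to DRAQ5 DNA stain, expressed as percent of blank control, IC50 by 4-parameter fit.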

[2] = biological target: GST-tagged KRAS-G12V (2-169) (Homo sapiens, UniProt P01116, G12V); experiment: Nucleotide exchange assay (NEA), SOS-mediated, HTRF, KRAS G12V; format: biochemical; conditions: Table 4; IC50 extracted at 90 min; 80 nM SOS
Method in brief: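 GST-KRAS-G12V (2-169), 0.25 nM, pre-incubated 1 h at RT with compound, then SOS1cat (564-1049) 80 nM and GTP-DY-647P1 150 nM added in HEPES pH 7.3 buffer with MgCl2 and DTT. HTRF via anti-GST Tb cryptate read over 90 min; IC50 from 4-parameter fit at 90 min, blanked to no-SOS reactions.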

[3] = biological target: GST-tagged KRAS-G12D (2-169) (Homo sapiens, UniProt P01116, G12D); experiment: Nucleotide exchange assay (NEA), SOS-mediated, HTRF, KRAS G12D; format: biochemical; conditions: Table 4; IC50 extracted at 30 min; 20 nM SOScat; read-out: NEA G12D IC50
Method in brief: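 Compound preincubated 1 h at RT with 0.25 nM GST-KRAS-G12D (2-169) and anti-GST Tb donor, then 20 nM SOS1cat (564-1049) and 150 nM GTP-DY-647P1 added; pH 7.3 HEPES buffer with MgCl2 and DTT. HTRF monitored at RT; % inhibition versus DMSO and no-SOS blank, 4-parameter IC50 taken at 30 min.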

[4] = test system: phospho-ERK in SW620 (KRAS-G12V) cells; experiment: pERK In Cell Western (ICW) assay (Method B), SW620; format: cell-based
Method in brief: as §1

[5] = Homo sapiens, SW-620, 3 h, Table 4

GST-tagged KRAS-G12D (2-169), sequence (P01116 2-169 isoform P01116-2 G12D): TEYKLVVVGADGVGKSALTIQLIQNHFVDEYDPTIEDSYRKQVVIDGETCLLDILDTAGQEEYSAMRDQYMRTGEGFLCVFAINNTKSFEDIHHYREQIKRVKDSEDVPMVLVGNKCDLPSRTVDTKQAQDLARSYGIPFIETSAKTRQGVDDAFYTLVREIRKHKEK
GST-tagged KRAS-G12V (2-169), sequence (P01116 2-169 isoform P01116-2 G12V): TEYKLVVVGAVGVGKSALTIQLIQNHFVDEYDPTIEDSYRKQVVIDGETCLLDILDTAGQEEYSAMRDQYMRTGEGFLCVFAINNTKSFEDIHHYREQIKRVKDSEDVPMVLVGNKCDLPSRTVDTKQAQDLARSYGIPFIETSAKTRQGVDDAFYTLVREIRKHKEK

Row | Compound | IC50 ([1]; Table 4, 3 hours) | IC50 [2] | IC50 [3] | IC50 ([4]; Table 4, 3 hours) | IC50 ([1]; GP2d, 3 h, Table 4) | IC50 [4, 5]
1 | C[C@H](c1cc(N)ncc1F)N(C)c1nc(OC[C@@]23CCCN2C[C@H](F)C3)nc(N2CC3(CCc4sc(N)c(C#N)c43)C2)n1 [Compound 142, 2-amino-1′-[4-[[(1R)-1-(2-amino-5-fluoro-4-pyridyl)ethyl]-methyl-amino]-6-[[(2R,8S)-2-fluoro-1,2,3,5,6,7-hexahydropyrrolizin-8-yl]methoxy]-1,3,5-triazin-2-yl]spiro[5,6-dihydrocyclopenta[b]thiophene-4,3′-azetidine]-3-carbonitrile] | 10 to 100 nM | < 10 nM | < 10 nM | 10 to 100 nM | – | –
2 | C[C@@]1(O)C[C@H](F)CN(c2nc(OC[C@@]34CCCN3C[C@H](F)C4)nc(N3CC4(C3)SCc3sc(N)c(C#N)c34)n2)C1 [Compound 143, 2-amino-1′-[4-[[(2R,8S)-2-fluoro-1,2,3,5,6,7-hexahydropyrrolizin-8-yl]methoxy]-6-[(3R,5S)-5-fluoro-3-hydroxy-3-methyl-1-piperidyl]-1,3,5-triazin-2-yl]spiro[6H-thieno[3,4-b]thiophene-4,3′-azetidine]-3-carbonitrile] | – | < 10 nM | < 10 nM | – | < 10 nM | 10 to 100 nM
3 | N#Cc1c(N)sc2c1C1(CN(c3nc(OC[C@@]45CCCN4C[C@H](F)C5)nc(N4CCOCC(C#N)C4)n3)C1)SC2 (stereo partly drawn) [Compound 146, 4-[4-(2-amino-3-cyano-spiro[6H-thieno[3,4-b]thiophene-4,3′-azetidine]-1′-yl)-6-[[(2R,8S)-2-fluoro-1,2,3,5,6,7-hexahydropyrrolizin-8-yl]methoxy]-1,3,5-triazin-2-yl]-1,4-oxazepane-6-carbonitrile] | – | < 10 nM | 10 to 100 nM | – | 100 to 1000 nM | 100 to 1000 nM
4 | C[C@H](c1cccnc1N)N(CCC#N)c1nc(OCC2(CN3CCOCC3)CC2)nc(N2CC3(C2)SCc2sc(N)c(C#N)c23)n1 [Compound 148, (R)-2′-amino-1-(4-((1-(2-aminopyridin-3-yl)ethyl)(2-cyanoethyl)amino)-6-((1-(morpholinomethyl)cyclopropyl)methoxy)-1,3,5-triazin-2-yl)-6′H-spiro[azetidine-3,4′-thieno[3,4-b]thiophene]-3′-carbonitrile] | – | < 10 nM | < 10 nM | – | 10 to 100 nM | < 10 nM
5 | CC(CO)N(Cc1cccnc1N)c1nc(OC[C@@]23CCCN2C[C@H](F)C3)nc(N2CC3(CCc4sc(N)c(C#N)c43)C2)n1 (stereo partly drawn) [Compound 149, 2-amino-1′-[4-[(2-amino-3-pyridyl)methyl-(2-hydroxy-1-methyl-ethyl)amino]-6-[[(2R,8S)-2-fluoro-1,2,3,5,6,7-hexahydropyrrolizin-8-yl]methoxy]-1,3,5-triazin-2-yl]spiro[5,6-dihydrocyclopenta[b]thiophene-4,3′-azetidine]-3-carbonitrile] | – | < 10 nM | < 10 nM | – | 1000 to 20000 nM | 100 to 1000 nM
6 | CN(Cc1cncs1)c1nc(OC[C@@]23CCCN2C[C@H](F)C3)nc(N2CC3(CCc4sc(N)c(C#N)c43)C2)n1 [Compound 152, 2-amino-1′-[4-[[(2R,8S)-2-fluoro-1,2,3,5,6,7-hexahydropyrrolizin-8-yl]methoxy]-6-[methyl(thiazol-5-ylmethyl)amino]-1,3,5-triazin-2-yl]spiro[5,6-dihydrocyclopenta[b]thiophene-4,3′-azetidine]-3-carbonitrile] | – | 100 to 1000 nM | 1000 to 20000 nM | – | 1000 to 20000 nM | 1000 to 20000 nM
7 | CN(C)CC1(COc2nc(N3CC4(C3)SCc3sc(N)c(C#N)c34)nc(N3C[C@@H](F)C[C@@](C)(O)C3)n2)CC1(F)F (stereo partly drawn) [Compound 153, 2-amino-1′-[4-[[1-[(dimethylamino)methyl]-2,2-difluoro-cyclopropyl]methoxy]-6-[(3R,5S)-5-fluoro-3-hydroxy-3-methyl-1-piperidyl]-1,3,5-triazin-2-yl]spiro[6H-thieno[3,4-b]thiophene-4,3′-azetidine]-3-carbonitrile] | – | < 10 nM | < 10 nM | – | < 10 nM | 10 to 100 nM
8 | CC(c1nonc1N)N(C)c1nc(OC[C@@]23CCCN2C[C@H](F)C3)nc(N2CC3(CCc4sc(N)c(C#N)c43)C2)n1 (stereo partly drawn) [Compound 156, 2′-amino-1-(4-((1-(4-amino-1,2,5-oxadiazol-3-yl)ethyl)(methyl)amino)-6-(((2R,7aS)-2-fluorotetrahydro-1H-pyrrolizin-7a(5H)-yl)methoxy)-1,3,5-triazin-2-yl)-5′,6′-dihydrospiro[azetidine-3,4′-cyclopenta[b]thiophene]-3′-carbonitrile] | – | < 10 nM | 100 to 1000 nM | – | 1000 to 20000 nM | 10 to 100 nM
9 | CC(c1cn(C)nc1N)N(C)c1nc(OC[C@@]23CCCN2C[C@H](F)C3)nc(N2CC3(CCc4sc(N)c(C#N)c43)C2)n1 (stereo partly drawn) [Compound 157, amino-1′-[4-[1-(3-amino-1-methyl-pyrazol-4-yl)ethyl-methyl-amino]-6-[[(2R,8S)-2-fluoro-1,2,3,5,6,7-hexahydropyrrolizin-8-yl]methoxy]-1,3,5-triazin-2-yl]spiro[5,6-dihydrocyclopenta[b]thiophene-4,3′-azetidine]-3-carbonitrile] | – | 10 to 100 nM | 100 to 1000 nM | – | 1000 to 20000 nM | 1000 to 20000 nM
10 | CC(c1ccns1)N(C)c1nc(OC[C@@]23CCCN2C[C@H](F)C3)nc(N2CC3(CCc4sc(N)c(C#N)c43)C2)n1 (stereo partly drawn) [Compound 158, 2-amino-1′-[4-[[(2R,8S)-2-fluoro-1,2,3,5,6,7-hexahydropyrrolizin-8-yl]methoxy]-6-[1-isothiazol-5-ylethyl(methyl)amino]-1,3,5-triazin-2-yl]spiro[5,6-dihydrocyclopenta[b]thiophene-4,3′-azetidine]-3-carbonitrile] | – | < 10 nM | 100 to 1000 nM | – | 1000 to 20000 nM | 100 to 1000 nM
11 | CC(=O)C(O)(O)C(=O)N1[C@@H]2CC[C@H]1CN(c1nc(OC[C@@]34CCCN3C[C@H](F)C4)nc(N3CC4(C3)SCc3sc(N)c(C#N)c34)n1)C2 [Compound 159, 2-amino-1′-[4-[(1R,5S)-8-(2,2-dihydroxy-3-oxo-butanoyl)-3,8-diazabicyclo[3.2.1]octan-3-yl]-6-[[(2R,8S)-2-fluoro-1,2,3,5,6,7-hexahydropyrrolizin-8-yl]methoxy]-1,3,5-triazin-2-yl]spiro[6H-thieno[3,4-b]thiophene-4,3′-azetidine]-3-carbonitrile] | – | 100 to 1000 nM | 10 to 100 nM | – | 100 to 1000 nM | 1000 to 20000 nM
12 | CN(c1nc(OC[C@@]23CCCN2C[C@H](F)C3)nc(N2CC3(C2)SCc2sc(N)c(C#N)c23)n1)C1CC1 [Compound 160, 2-amino-1′-[4-[cyclopropyl(methyl)amino]-6-[[(2R,8S)-2-fluoro-1,2,3,5,6,7-hexahydropyrrolizin-8-yl]methoxy]-1,3,5-triazin-2-yl]spiro[6H-thieno[3,4-b]thiophene-4,3′-azetidine]-3-carbonitrile] | – | 10 to 100 nM | 10 to 100 nM | – | 100 to 1000 nM | 100 to 1000 nM
13 | CC(c1ccc(F)nc1N)N(C)c1nc(OC[C@@]23CCCN2C[C@H](F)C3)nc(N2CC3(CCc4sc(N)c(C#N)c43)C2)n1 (stereo partly drawn) [Compound 162, 2-amino-1′-[4-[1-(2-amino-6-fluoro-3-pyridyl)ethyl-methyl-amino]-6-[[(2R,8S)-2-fluoro-1,2,3,5,6,7-hexahydropyrrolizin-8-yl]methoxy]-1,3,5-triazin-2-yl]spiro[5,6-dihydrocyclopenta[b]thiophene-4,3′-azetidine]-3-carbonitrile] | – | < 10 nM | 10 to 100 nM | – | 100 to 1000 nM | 10 to 100 nM
14 | C[C@H](c1cccnc1N)N(C)c1nc(OC[C@@]23CCCN2C[C@H](F)C3)nc(N2CC3(CCCc4sc(N)c(C#N)c43)C2)n1 [Compound 163, 2-amino-1′-[4-[[(1R)-1-(2-amino-3-pyridyl)ethyl]-methyl-amino]-6-[[(2R,8S)-2-fluoro-1,2,3,5,6,7-hexahydropyrrolizin-8-yl]methoxy]-1,3,5-triazin-2-yl]spiro[6,7-dihydro-5H-benzothiophene-4,3′-azetidine]-3-carbonitrile] | – | < 10 nM | < 10 nM | – | < 10 nM | < 10 nM
15 | CN(Cc1nsnc1N)c1nc(OC[C@@]23CCCN2C[C@H](F)C3)nc(N2CC3(CCc4sc(N)c(C#N)c43)C2)n1 [Compound 166, 2-amino-1′-[4-[(4-amino-1,2,5-thiadiazol-3-yl)methyl-methyl-amino]-6-[[(2R,8S)-2-fluoro-1,2,3,5,6,7-hexahydropyrrolizin-8-yl]methoxy]-1,3,5-triazin-2-yl]spiro[5,6-dihydrocyclopenta[b]thiophene-4,3′-azetidine]-3-carbonitrile] | – | < 10 nM | 10 to 100 nM | – | 100 to 1000 nM | 10 to 100 nM
